Reference: US20230247994A1, “HETEROCYCLENE DERIVATIVES AS PEST CONTROL AGENTS” (Bayer Aktiengesellschaft, priority 2020, published 2023)

Legend:
Assay type in all cases: in vivo
Diabrotica balteata = Diabrotica balteata spray test (germinated wheat grains); conditions: 168 h, application rate 100 g/ha (=32 μg/cavity), after 7 days, beetle larvae on wheat, 100% = all wheat plants grown as in untreated, uninfected control, read-out: efficacy in %
Text: Diabrotica Balteata—Spray Test Solvent: 78 parts by weight of acetone • • 1.5 parts by weight of dimethylformamide Emulsifier: alkylaryl polyglycol ether An appropriate active ingredient formulation is produced by dissolving 1 part by weight of active ingredient with the stated parts by weight of solvent and making the solution up to the desired concentration with water containing an emulsifier concentration of 1000 ppm. Further test concentrations are produced by diluting the formulation with emulsifier-containing water. Pre-swollen wheat grains (Triticum aestivum) are incubated in a multiwell plate filled with agar and a little water for one day (5 seed grains per cavity). The germinated wheat grains are sprayed with an active ingredient formulation of the desired concentration. Subsequently, each cavity is infected with 10-20 beetle larvae of Diabrotica balteata. After 7 days, efficacy in % is determined. 100% means that all wheat plants have grown as in the untreated, uninfected control; 0% means that no wheat plant has grown.

Spodoptera frugiperda = Spodoptera frugiperda spray test (maize leaf disks); conditions: foliar, 168 h, application rate 100 g/ha, caterpillars, after 7 days, 100% = all caterpillars killed, read-out: efficacy in %
Text: Spodoptera frugiuerda—Spray Test
Solvent: 78.0 parts by weight of acetone • • 1.5 parts by weight of dimethylformamide
Emulsifier: alkylaryl polyglycol ether
An appropriate active ingredient formulation is produced by dissolving 1 part by weight of active ingredient with the stated parts by weight of solvent and making the solution up to the desired concentration with water containing an emulsifier concentration of 1000 ppm. Further test concentrations are produced by diluting the formulation with emulsifier-containing water.
Leaf disks of maize (Zea mays) are sprayed with an active ingredient formulation of the desired concentration and, after drying, populated with caterpillars of the fall armyworm (Spodopterafrugiperda).
After 7 days, efficacy in % is determined. 100% means that all of the caterpillars have been killed; 0% means that none of the caterpillars have been killed.

Nezara viridula = Nezara viridula spray test (barley plants); conditions: 96 h, application rate 500 g/ha, larvae, after 4 days, 100% = all shield bugs killed, read-out: efficacy in %
Text: Nezara viridula—Spray Test Solvent: 78.0 parts by weight of acetone • • 1.5 parts by weight of dimethylformamide Emulsifier: alkylaryl polyglycol ether An appropriate active ingredient formulation is produced by dissolving 1 part by weight of active ingredient with the stated parts by weight of solvent and making the solution up to the desired concentration with water containing an emulsifier concentration of 1000 ppm. Further test concentrations are produced by diluting the formulation with emulsifier-containing water. Barley plants (Hordeum vulgare) are sprayed with an active ingredient formulation of the desired concentration and are infected with larvae of the Southern green shield bug (Nezara viridula). After 4 days, efficacy in % is determined. 100% means that all of the shield bugs have been killed; 0% means that none of the shield bugs have been killed.

CCS(=O)(=O)c1c(-c2nc3cc4c(cc3[nH]2)OC(F)(F)C(F)(F)O4)nc(Br)n1C [Example I-2, 2-[2-Bromo-5-(ethylsulfonyl)-1-methyl-1H-imidazol-4-yl]-6,6,7,7-tetrafluoro-6,7-dihydro-1H-[1,4]dioxino[2,3-f]benzimidazole]
pest or weed control at 100 g/ha (Diabrotica balteata): 100% | pest or weed control at 100 g/ha (Spodoptera frugiperda): 100%

CCS(=O)(=O)c1c(-c2nc3cc4c(cc3n2C)OC(F)(F)C(F)(F)O4)nc(-c2ccc(F)cc2)n1C [Example I-5, 2-[5-(Ethylsulfonyl)-2-(4-fluorophenyl)-1-methyl-1H-imidazol-4-yl]-6,6,7,7-tetrafluoro-1-methyl-6,7-dihydro-1H-[1,4]dioxino[2,3-f]benzimidazole]
pest or weed control at 100 g/ha (Diabrotica balteata): 100% | pest or weed control at 100 g/ha (Spodoptera frugiperda): 100%

CCS(=O)(=O)c1c(-c2nc3cc4c(cc3n2C)OC(F)(F)C(F)(F)O4)nc(-c2ccc(C3(C(F)(F)F)CC3)cc2)n1C [Example I-7, 2-[5-(Ethylsulfonyl)-1-methyl-2-{4-[1-(trifluoromethyl)cyclopropyl]phenyl}-1H-imidazol-4-yl]-6,6,7,7-tetrafluoro-1-methyl-6,7-dihydro-1H-[1,4]dioxino[2,3-f]benzimidazole]
pest or weed control at 100 g/ha (Diabrotica balteata): 100%

CCS(=O)(=O)c1c(-c2nc3cc4c(cc3n2C)OC(F)(F)C(F)(F)O4)nc(-c2ccc(Br)cc2)n1C [Example I-10, 2-[2-(4-Bromophenyl)-5-(ethylsulfonyl)-1-methyl-1H-imidazol-4-yl]-6,6,7,7-tetrafluoro-1-methyl-6,7-dihydro-1H-[1,4]dioxino[2,3-f]benzimidazole]
pest or weed control at 500 g/ha (Nezara viridula): 100% | pest or weed control at 100 g/ha (Diabrotica balteata): 100% | pest or weed control at 100 g/ha (Spodoptera frugiperda): 100%

CCS(=O)(=O)c1c(-c2nc3cc4c(cc3n2C)OC(F)(F)C(F)(F)O4)nc(-c2ccc(C3(F)CC3)cc2)n1C [Example I-11, 2-{5-(Ethylsulfonyl)-2-[4-(1-fluorocyclopropyl)phenyl]-1-methyl-1H-imidazol-4-yl}-6,6,7,7-tetrafluoro-1-methyl-6,7-dihydro-1H-[1,4]dioxino[2,3-f]benzimidazole]
pest or weed control at 500 g/ha (Nezara viridula): 100% | pest or weed control at 100 g/ha (Diabrotica balteata): 100% | pest or weed control at 100 g/ha (Spodoptera frugiperda): 100%

CCS(=O)(=O)c1c(-c2nc3cc4c(cc3n2C)OC(F)(F)C(F)(F)O4)nc(-c2cccc(Br)c2)n1C [Example I-12, 2-[2-(3-Bromophenyl)-5-(ethylsulfonyl)-1-methyl-1H-imidazol-4-yl]-6,6,7,7-tetrafluoro-1-methyl-6,7-dihydro-1H-[1,4]dioxino[2,3-f]benzimidazole]
pest or weed control at 100 g/ha (Diabrotica balteata): 100% | pest or weed control at 100 g/ha (Spodoptera frugiperda): 100%

CCS(=O)(=O)c1c(-c2nc3cc4c(cc3n2C)OC(F)(F)C(F)(F)O4)nc(-c2cccc(Cl)c2)n1C [Example I-13, 2-[2-(3-Chlorophenyl)-5-(ethylsulfonyl)-1-methyl-1H-imidazol-4-yl]-6,6,7,7-tetrafluoro-1-methyl-6,7-dihydro-1H-[1,4]dioxino[2,3-f]benzimidazole]
pest or weed control at 100 g/ha (Diabrotica balteata): 100% | pest or weed control at 100 g/ha (Spodoptera frugiperda): 100%

CCS(=O)(=O)c1c(-c2nc3cc4c(cc3n2C)OC(F)(F)C(F)(F)O4)nc(-c2cccc(F)c2)n1C [Example I-14, 2-[5-(Ethylsulfonyl)-2-(3-fluorophenyl)-1-methyl-1H-imidazol-4-yl]-6,6,7,7-tetrafluoro-1-methyl-6,7-dihydro-1H-[1,4]dioxino[2,3-f]benzimidazole]
pest or weed control at 500 g/ha (Nezara viridula): 90% | pest or weed control at 100 g/ha (Diabrotica balteata): 100% | pest or weed control at 100 g/ha (Spodoptera frugiperda): 100%

CCS(=O)(=O)c1c(-c2nc3cc4c(cc3n2C)OC(F)(F)C(F)(F)O4)nc(-c2ccc(C(F)(F)F)cc2)n1C [Example I-15, 2-{5-(Ethylsulfonyl)-1-methyl-2-[4-(trifluoromethyl)phenyl]-1H-imidazol-4-yl}-6,6,7,7-tetrafluoro-1-methyl-6,7-dihydro-1H-[1,4]dioxino[2,3-f]benzimidazole]
pest or weed control at 500 g/ha (Nezara viridula): 100% | pest or weed control at 100 g/ha (Diabrotica balteata): 100% | pest or weed control at 100 g/ha (Spodoptera frugiperda): 100%

CCS(=O)(=O)c1c(-c2nc3cc4c(cc3n2C)OC(F)(F)C(F)(F)O4)nc(-c2ccc(C3CC3)nc2)n1C [Example I-18, 2-[2-(6-Cyclopropylpyridin-3-yl)-5-(ethylsulfonyl)-1-methyl-1H-imidazol-4-yl]-6,6,7,7-tetrafluoro-1-methyl-6,7-dihydro-1H-[1,4]dioxino[2,3-f]benzimidazole]
pest or weed control at 500 g/ha (Nezara viridula): 100% | pest or weed control at 100 g/ha (Diabrotica balteata): 100% | pest or weed control at 100 g/ha (Spodoptera frugiperda): 100%

CCS(=O)(=O)c1c(-c2nc3cc4c(cc3n2C)OC(F)(F)C(F)(F)O4)nc(-c2ccc(Cl)s2)n1C [Example I-19, 2-[2-(5-Chloro-2-thienyl)-5-(ethylsulfonyl)-1-methyl-1H-imidazol-4-yl]-6,6,7,7-tetrafluoro-1-methyl-6,7-dihydro-1H-[1,4]dioxino[2,3-f]benzimidazole]
pest or weed control at 500 g/ha (Nezara viridula): 100% | pest or weed control at 100 g/ha (Spodoptera frugiperda): 100%

CCS(=O)(=O)c1c(-c2nc3cc4c(cc3n2C)OC(F)(F)C(F)(F)O4)nc(-c2cccc(C3(F)CC3)c2)n1C [Example I-20, 2-{5-(Ethylsulfonyl)-2-[3-(1-fluorocyclopropyl)phenyl]-1-methyl-1H-imidazol-4-yl}-6,6,7,7-tetrafluoro-1-methyl-6,7-dihydro-1H-[1,4]dioxino[2,3-f]benzimidazole]
pest or weed control at 500 g/ha (Nezara viridula): 90% | pest or weed control at 100 g/ha (Diabrotica balteata): 100% | pest or weed control at 100 g/ha (Spodoptera frugiperda): 100%

CCS(=O)(=O)c1c(-c2nc3cc4c(cc3n2C)OC(F)(F)C(F)(F)O4)nc(-n2cnc(C3CC3)n2)n1C [Example I-23, 2-[2-(3-Cyclopropyl-1H-1,2,4-triazol-1-yl)-5-(ethylsulfonyl)-1-methyl-1H-imidazol-4-yl]-6,6,7,7-tetrafluoro-1-methyl-6,7-dihydro-1H-[1,4]dioxino[2,3-f]benzimidazole]
pest or weed control at 500 g/ha (Nezara viridula): 100% | pest or weed control at 100 g/ha (Diabrotica balteata): 80% | pest or weed control at 100 g/ha (Spodoptera frugiperda): 100%

CCS(=O)(=O)c1c(-c2nc3cc4c(cc3n2C)OC(F)(F)C(F)(F)O4)nc(-c2ccc(Br)cn2)n1C [Example I-24, 2-[2-(5-Bromopyridin-2-yl)-5-(ethylsulfonyl)-1-methyl-1H-imidazol-4-yl]-6,6,7,7-tetrafluoro-1-methyl-6,7-dihydro-1H-[1,4]dioxino[2,3-f]benzimidazole]
pest or weed control at 500 g/ha (Nezara viridula): 100% | pest or weed control at 100 g/ha (Diabrotica balteata): 100% | pest or weed control at 100 g/ha (Spodoptera frugiperda): 100%

CCS(=O)(=O)c1c(-c2nc3cc4c(cc3n2C)OC(F)(F)C(F)(F)O4)nc(-c2ccc(-c3ccc(Br)cn3)cn2)n1C [Example I-25]
pest or weed control at 100 g/ha (Spodoptera frugiperda): 100%

CCS(=O)(=O)c1c(-c2nc3cc4c(cc3n2C)OC(F)(F)C(F)(F)O4)nc(-c2ccc(Cl)cn2)n1C [Example I-31, 2-[2-(5-Chloropyridin-2-yl)-5-(ethylsulfonyl)-1-methyl-1H-imidazol-4-yl]-6,6,7,7-tetrafluoro-1-methyl-6,7-dihydro-1H-[1,4]dioxino[2,3-f]benzimidazole]
pest or weed control at 100 g/ha (Spodoptera frugiperda): 100%

CCS(=O)(=O)c1c(-c2nc3cc4c(cc3n2C)OC(F)(F)C(F)(F)O4)nc(-c2ccc(C#N)cn2)n1C [Example I-32, 6-[5-(Ethylsulfonyl)-1-methyl-4-(6,6,7,7-tetrafluoro-1-methyl-6,7-dihydro-1H-[1,4]dioxino[2,3-f]benzimidazol-2-yl)-1H-imidazol-2-yl]nicotinonitrile]
pest or weed control at 100 g/ha (Diabrotica balteata): 100% | pest or weed control at 100 g/ha (Spodoptera frugiperda): 100%

CCS(=O)(=O)c1c(-c2nc3cc4c(cc3n2C)OC(F)(F)C(F)(F)O4)nc(-c2cccc(C3(C#N)CC3)c2)n1C [Example I-36]
pest or weed control at 500 g/ha (Nezara viridula): 90% | pest or weed control at 100 g/ha (Diabrotica balteata): 100% | pest or weed control at 100 g/ha (Spodoptera frugiperda): 100%

CCS(=N)(=O)c1c(-c2nc3cc4c(cc3n2C)OC(F)(F)C(F)(F)O4)nc(-c2ccc(C3(C#N)CC3)cc2)n1C (stereo not shown) [Example I-39]
pest or weed control at 100 g/ha (Spodoptera frugiperda): 100%
